Measurements: US12252524B2, “GIP/GLP1 co-agonist compounds” (Eli Lilly and Company, priority 2018, dated 2025)
Numbered stars: 1 amine (or outer) side, 2 acyl side, 3 side chain; on linkers, the order of the positions; unused ones are H or OH. Square brackets hold non-standard residues; d marks the D form. Side chains are listed from the residue outwards. Peptide text beside a SMILES is read from it. * marks the point of attachment. C20 diacid = O=C(O)CCCCCCCCCCCCCCCCCCC(=O)*; γGlu = O=C(O)[C@H](CCC(=O)[*:2])N[*:1]; αMeF = C[C@](N)(Cc1ccccc1)C(=O)O; αMeL = CC(C)C[C@](C)(N)C(=O)O; AEEA = NCCOCCOCC(=O)O; Aib = CC(C)(N)C(=O)O

Tests used:
human Gcg receptor = biological target: T1, human Gcg receptor (Homo sapiens, UniProt P47871); test: [125I]-Glucagon binding (SPA), human Gcg receptor; conditions: read-out: hGLcgR Ki, nM (SEM, n)
T1 construct: expressed in transfected cells; crude membranes
T1 sequence (P47871 26-477): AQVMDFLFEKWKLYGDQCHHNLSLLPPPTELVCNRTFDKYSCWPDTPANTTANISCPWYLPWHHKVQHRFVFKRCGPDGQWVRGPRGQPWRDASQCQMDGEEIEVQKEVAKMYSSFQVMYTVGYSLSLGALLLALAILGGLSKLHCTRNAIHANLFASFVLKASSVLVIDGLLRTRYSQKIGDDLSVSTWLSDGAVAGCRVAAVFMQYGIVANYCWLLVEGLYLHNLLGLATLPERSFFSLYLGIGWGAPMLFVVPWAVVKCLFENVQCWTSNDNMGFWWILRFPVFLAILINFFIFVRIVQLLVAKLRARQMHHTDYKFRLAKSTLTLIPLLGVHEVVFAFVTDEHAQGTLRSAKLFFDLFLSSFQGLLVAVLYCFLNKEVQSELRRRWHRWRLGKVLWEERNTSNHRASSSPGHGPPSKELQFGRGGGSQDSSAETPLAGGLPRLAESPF
Summary of the method: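 Scintillation counts are taken after membranes and WGA beads incubate and settle for 12 hours at room temperature. Buffer is 25 mM HEPES, pH 7.4, with CaCl2, MgCl2, bacitracin and Tween-20. Ki values, from four-parameter IC50 fits, are geometric means over independent days.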

human GIP receptor = biological target: T2, human GIP receptor (Homo sapiens, UniProt P48546); test: [125I]-GIP binding (SPA), human GIP receptor; conditions: read-out: hGIPR Ki, nM (SEM, n)
T2 construct: expressed in transfected cells; crude membranes
T2 sequence (P48546 22-466): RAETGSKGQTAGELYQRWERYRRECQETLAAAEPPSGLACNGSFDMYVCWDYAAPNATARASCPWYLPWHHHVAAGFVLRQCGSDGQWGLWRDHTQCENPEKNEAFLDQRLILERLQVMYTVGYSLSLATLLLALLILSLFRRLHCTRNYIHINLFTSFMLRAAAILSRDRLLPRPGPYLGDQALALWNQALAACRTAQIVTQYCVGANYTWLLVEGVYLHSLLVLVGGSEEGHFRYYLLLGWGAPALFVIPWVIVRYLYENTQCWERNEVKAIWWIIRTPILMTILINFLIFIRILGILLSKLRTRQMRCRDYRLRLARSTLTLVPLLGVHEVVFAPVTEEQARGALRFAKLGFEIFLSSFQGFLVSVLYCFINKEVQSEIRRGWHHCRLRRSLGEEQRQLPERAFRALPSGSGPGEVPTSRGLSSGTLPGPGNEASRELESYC

[1] = biological target: T3, gastric inhibitory peptide receptor (GIPR) (Homo sapiens, UniProt P48546); test: cAMP pharmacological functional assay in presence of casein, hGIPR; format: cell-based; conditions: HEK293 cells expressing hGIPR, 0.1% Casein, geometric mean; read-out: hGIPR cAMP Rel EC50 nM (SEM, n)
T3 sequence (P48546 22-466): T2 sequence (P48546 22-466)

[2] = biological target: human GLP-1 receptor (GLP-1R) (Homo sapiens, UniProt P43220); test: cAMP pharmacological functional assay in presence of casein, hGLP-1R; format: cell-based; conditions: HEK293 cells expressing hGLP-1R, 0.1% Casein, geometric mean; read-out: hGLP1R cAMP Rel EC50 nM (SEM, n)
Sequence of human GLP-1 receptor (GLP-1R) (P43220 24-463): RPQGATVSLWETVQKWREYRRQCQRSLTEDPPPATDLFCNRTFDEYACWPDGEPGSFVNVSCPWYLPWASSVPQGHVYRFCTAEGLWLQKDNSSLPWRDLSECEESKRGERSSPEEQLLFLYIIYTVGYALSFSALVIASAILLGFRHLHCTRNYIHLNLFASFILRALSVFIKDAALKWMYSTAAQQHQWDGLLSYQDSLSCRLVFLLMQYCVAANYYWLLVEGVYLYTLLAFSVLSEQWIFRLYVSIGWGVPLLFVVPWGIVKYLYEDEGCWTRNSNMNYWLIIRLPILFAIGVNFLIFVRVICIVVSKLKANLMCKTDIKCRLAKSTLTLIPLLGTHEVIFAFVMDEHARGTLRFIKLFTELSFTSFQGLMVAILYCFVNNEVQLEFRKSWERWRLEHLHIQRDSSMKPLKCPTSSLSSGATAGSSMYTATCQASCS

human GLP-1R = human GLP-1R (Homo sapiens, UniProt P43220); test: [125I]-GLP-1 binding (SPA), human GLP-1 receptor; set-up: expressed in transfected cells; crude membranes; conditions: read-out: hGLP1R Ki, (nM) (SEM, n)
Sequence of human GLP-1R (P43220 24-463): as above
Summary of the method: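 Frozen cell pellets are lysed on ice in hypotonic Tris buffer, pH 7.5, homogenized, and centrifuged to a membrane pellet resuspended at about 1 to 3 mg/mL. Binding is then measured in HEPES-based buffer at pH 7.4, and curves are fitted to give IC50 and Ki.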

## CC[C@H](C)[C@H](NC(=O)[C@H](CC(C)C)NC(=O)[C@H](Cc1ccc(O)cc1)NC(=O)[C@H](CCC(=O)O)NC(=O)[C@@H](NC(=O)[C@H](Cc1ccccc1)NC(=O)[C@H](CC(=O)O)NC(=O)C(C)(C)NC(=O)[C@H](CCC(N)=O)NC(=O)[C@H](C)NC(=O)[C@H](CCCCNC(=O)COCCOCCNC(=O)COCCOCCNC(=O)CC[C@H](NC(=O)CCCCCCCCCCCCCCCCCCC(=O)O)C(=O)O)NC(=O)[C@H](CCCCN)NC(=O)[C@H](CC(=O)O)NC(=O)[C@H](CC(C)C)NC(=O)[C@](C)(CC(C)C)NC(=O)[C@@H](NC(=O)[C@H](CO)NC(=O)[C@H](Cc1ccc(O)cc1)NC(=O)[C@H](CC(=O)O)NC(=O)[C@H](CO)NC(=O)[C@@H](NC(=O)[C@](C)(Cc1ccccc1)NC(=O)[C@@H](NC(=O)CNC(=O)[C@H](CCC(=O)O)NC(=O)C(C)(C)NC(=O)[C@@H](N)Cc1ccc(O)cc1)[C@@H](C)O)[C@@H](C)O)[C@@H](C)CC)[C@@H](C)CC)C(=O)N[C@@H](CCC(=O)O)C(=O)NCC(=O)NCC(=O)N1CCC[C@H]1C(=O)N[C@@H](CO)C(=O)N[C@@H](CO)C(=O)NCC(=O)N[C@@H](C)C(=O)N1CCC[C@H]1C(=O)N1CCC[C@H]1C(=O)N1CCC[C@H]1C(=O)N[C@@H](CO)C(N)=O [Example 140] (H-Y[Aib]EGT[αMeF]TSDYSI[αMeL]LDKK([AEEA-AEEA-γGlu-C20 diacid])AQ[Aib]DFIEYLIEGGPSSGAPPPS-NH2)
Human Gcg receptor
  Ki: 175 nM
Human GIP receptor
  Ki: 0.0474 nM
[1]
  EC50: 0.0349 nM
[2]
  EC50: 0.0424 nM
Human GLP-1R
  Ki: 1.46 nM

## CC[C@H](C)[C@H](NC(=O)[C@H](CC(C)C)NC(=O)[C@H](Cc1ccc(O)cc1)NC(=O)[C@H](CCC(=O)O)NC(=O)[C@@H](NC(=O)[C@H](Cc1ccccc1)NC(=O)[C@H](Cc1c[nH]cn1)NC(=O)C(C)(C)NC(=O)[C@H](CCC(N)=O)NC(=O)[C@H](C)NC(=O)[C@H](CCCCNC(=O)COCCOCCNC(=O)COCCOCCNC(=O)CC[C@H](NC(=O)CCCCCCCCCCCCCCCCCCC(=O)O)C(=O)O)NC(=O)[C@H](CCCCN)NC(=O)[C@H](CC(=O)O)NC(=O)[C@H](CC(C)C)NC(=O)[C@](C)(CC(C)C)NC(=O)[C@@H](NC(=O)[C@H](CO)NC(=O)[C@H](Cc1ccc(O)cc1)NC(=O)[C@H](CC(=O)O)NC(=O)[C@H](CO)NC(=O)[C@@H](NC(=O)[C@](C)(Cc1ccccc1)NC(=O)[C@@H](NC(=O)CNC(=O)[C@H](CCC(=O)O)NC(=O)C(C)(C)NC(=O)[C@@H](N)Cc1ccc(O)cc1)[C@@H](C)O)[C@@H](C)O)[C@@H](C)CC)[C@@H](C)CC)C(=O)N[C@@H](CCC(=O)O)C(=O)NCC(=O)NCC(=O)N1CCC[C@H]1C(=O)N[C@@H](CO)C(=O)N[C@@H](CO)C(=O)NCC(=O)N[C@@H](C)C(=O)N1CCC[C@H]1C(=O)N1CCC[C@H]1C(=O)N1CCC[C@H]1C(=O)N[C@@H](CO)C(N)=O [Example 142] (H-Y[Aib]EGT[αMeF]TSDYSI[αMeL]LDKK([AEEA-AEEA-γGlu-C20 diacid])AQ[Aib]HFIEYLIEGGPSSGAPPPS-NH2; N-terminus assumed)
Human Gcg receptor
  Ki: 53.1 nM
Human GIP receptor
  Ki: 0.0275 nM
[1]
  EC50: 0.0489 nM
[2]
  EC50: 0.0426 nM
Human GLP-1R
  Ki: 1.06 nM
